Reference: patent US4956367A, “2-amino-4-morpholino-6-propyl-1,3,5-triazines” (U C B S.A., priority 1988, dated 1990)

system: not listed separately; test: Toxicity (Irwin's test); type: in vivo; settings: mice, intraperitoneal
Experimental: Progressive doses of the compound to be tested are administered intraperitoneally to groups of three mice until the lethal dose is reached (dose which causes the death of two animals out of three within 48 hours).

Compound | Lethal dose (death of two animals out of three within 48 hours)
CCCc1nc(NC(C)=O)nc(N2CCOCC2)n1 | 905 mg/kg
CCCc1nc(N2CCOCC2)nc(N(C)C(C)=O)n1 | 947 mg/kg
CCCc1nc(NCCO)nc(N2CCOCC2)n1 [Compound 1, 2-[(4-morpholino-6-propyl-1,3,5-triazin-2-yl)amino]-ethanol] | 802 mg/kg
CCCc1nc(NO)nc(N2CCOCC2)n1 [Compound 2, 2-(hydroxyamino)-4-morpholino-6-propyl-1,3,5-triazine] | 718 mg/kg
CCCc1nc(NCCCO)nc(N2CCOCC2)n1 [Compound 3] | 844 mg/kg
CCCc1nc(NCCCCO)nc(N2CCOCC2)n1 [Compound 4] | 886 mg/kg
CCCc1nc(NCC(C)O)nc(N2CCOCC2)n1 (centres unmarked) [Compound 5] | 563 mg/kg
CCCc1nc(NCC(O)CC)nc(N2CCOCC2)n1 (centres unmarked) [Compound 6] | 886 mg/kg
CCCc1nc(NC(C)(C)CO)nc(N2CCOCC2)n1 [Compound 8] | 886 mg/kg
CCCc1nc(NCCOC)nc(N2CCOCC2)n1 [Compound 10, 2-[(2-methoxyethyl)amino]-4-morpholino-6-propyl-1,3,5-triazine] | 844 mg/kg
CCCc1nc(NCC(O)CO)nc(N2CCOCC2)n1 (centres unmarked) [Compound 11] | 892 mg/kg
CCCc1nc(NC(CO)(CO)CO)nc(N2CCOCC2)n1 [Compound 12] | 982 mg/kg
CCCc1nc(NC(C)(CO)CO)nc(N2CCOCC2)n1 [Compound 13] | 934 mg/kg
CCCc1nc(N2CCOCC2)nc(N(CCO)Cc2ccccc2)n1 [Compound 14] | > 1073 mg/kg
CCCc1nc(NC(CO)C(O)c2ccccc2)nc(N2CCOCC2)n1 (centres unmarked) [Compound 15] | 1121 mg/kg
CCCc1nc(NC[C@H](C)O)nc(N2CCOCC2)n1 [Compound 16, (S)-3-[(4-morpholino-6-propyl-1,3,5-triazin-2-yl)amino]-2-propanol] | 844 mg/kg
CCCc1nc(NC[C@@H](C)O)nc(N2CCOCC2)n1 [Compound 17] | 844 mg/kg
CCCc1nc(NCC2(O)CCCCC2)nc(N2CCOCC2)n1 [Compound 18] | 1007 mg/kg
CCCc1nc(N2CCOCC2)nc(N2CCCC2CO)n1 (centres unmarked) [Compound 19] | 1031 mg/kg
CCCc1nc(NN(C)C)nc(N2CCOCC2)n1 [Compound 20, 2-(2,2-dimethylhydrazino)-4-morpholino-6-propyl-1,3,5-triazine] | 799 mg/kg
CCCc1nc(NC(C)=O)nc(N2CCOCC2)n1 [Compound 21a, N-(4-Morpholino-6-propyl-1,3,5-triazin-2-yl)-acetamide] | 996 mg/kg

Compound | Lethal dose (death of two animals out of three within 48 hours)
CCCc1nc(NC(=O)c2ccccc2)nc(N2CCOCC2)n1.Cl [Compound 22, N-(4-morpholino-6-propyl-1,3,5-triazin-2-yl)-benzamide hydrochloride] | 1091 mg/kg
CCCc1nc(NC(=O)Cc2ccccc2)nc(N2CCOCC2)n1 [Compound 23] | > 1024 mg/kg
CCCc1nc(NC(=O)C(C)C)nc(N2CCOCC2)n1 [Compound 24] | 880 mg/kg
CCCc1nc(N2CCOCC2)nc(N(C)C(=O)c2ccccc2)n1.Cl [Compound 27, N-methyl-N-(4-morpholino-6-propyl-1,3,5-triazin-2-yl)-benzamide hydrochloride] | 1133 mg/kg
CCCc1nc(NC(=O)Oc2ccccc2)nc(N2CCOCC2)n1 [Compound 28, phenyl (4-morpholino-6-propyl-1,3,5-triazin-2-yl)carbamate] | > 1030 mg/kg
CCCc1nc(NC(=O)c2ccc(Cl)cc2)nc(N2CCOCC2)n1 [Compound 29] | 398 mg/kg
CCCc1nc(N2CCOCC2)nc(N(C)C(=O)c2ccc(Cl)cc2)n1 [Compound 30] | 1125 mg/kg
CCCc1nc(NC(=O)c2ccc(OC)cc2)nc(N2CCOCC2)n1 [Compound 31] | 511 mg/kg
CCCc1nc(N2CCOCC2)nc(N(C)C(=O)c2ccc(OC)cc2)n1 [Compound 32] | 1222 mg/kg
CCCc1nc(NC(=O)c2ccc(C)cc2)nc(N2CCOCC2)n1 [Compound 33] | 1132 mg/kg
CCCc1nc(N2CCOCC2)nc(N(C)C(=O)c2ccc(C)cc2)n1 [Compound 34] | 1174 mg/kg
CCCc1nc(N2CCOCC2)nc(N(C)C(=O)c2ccc(OC)c(OC)c2)n1 [Compound 35] | 401 mg/kg
CCCc1nc(NC(=O)c2ccc(C)c(C)c2)nc(N2CCOCC2)n1 [Compound 36] | 1174 mg/kg
CCCc1nc(NCCOC(C)=O)nc(N2CCOCC2)n1 [Compound 37, 2-[[2-(acetoxy)ethyl]amino]-4-morpholino-6-propyl-1,3,5-triazine] | 928 mg/kg
CCCc1nc(NCCOC(=O)C(C)C)nc(N2CCOCC2)n1 [Compound 38] | > 1012 mg/kg
CCCc1nc(NCCOC(=O)c2ccccc2)nc(N2CCOCC2)n1 [Compound 39] | > 1114 mg/kg
CCCc1nc(NCCOC(=O)Cc2ccccc2)nc(N2CCOCC2)n1 [Compound 40] | 1157 mg/kg
CCCc1nc(NC(=O)N(C)C)nc(N2CCOCC2)n1 [Compound 41, N,N-Dimethyl-N'-(4-morpholino-6-propyl-1,3.5-triazin-2-yl)-urea] | 294 mg/kg
CCCc1nc(NCCOC(N)=O)nc(N2CCOCC2)n1 [Compound 42, 2-[[2-[(Aminocarbonyl)oxy]ethyl]amino]-4-morpholino-6-propyl-1,3,5-triazine] | > 931 mg/kg
CCCc1nc(N2CCOCC2)nc(N(CCOC(C)=O)C(C)=O)n1 [Compound 43, N-[2-(Acetoxy)ethyl]-N-(4-morpholino-6-propyl-1,3,5-triazin-2-yl)-acetamide] | 351 mg/kg

same assay, conditions: mouse, in vivo, ip

Compound | Lethal dose (death of two animals out of three within 48 hours)
CCCc1nc(NC(CC)CO)nc(N2CCOCC2)n1 (centres unmarked) [Compound 7] | 886 mg/kg
CCCc1nc(N(C)CCO)nc(N2CCOCC2)n1 [Compound 9] | 844 mg/kg
CCCc1nc(N2CCOCC2)nc(N(C)C(C)=O)n1 [Compound 25a] | 838 mg/kg
CCCc1nc(N2CCOCC2)nc(N(C)C(=O)C(C)C)n1 [Compound 26] | 922 mg/kg

system: effects of scopolamine on the band from 6.4 to 9.6 Hz in the EEG; test: Inhibition of the effects of scopolamine on the electroencephalogram (EEG); type: in vivo, male albino Sprague-Dawley rats; design: inhibition: dose or concentration left out as unconfirmed; settings: Rattus norvegicus, ip; read-out: Inhibition (percentage of reduction in the increase in the intensity of the band from 6.4 to 9.6 Hz)
Experimental: Male albino Sprague-Dawley SPF rats (160 to 200 g) are used in this test. When the animals are 3 months old, 5 cortical electrodes are implanted permanently, aseptically and under a general anesthesia: one inert electrode, one left and one right frontal electrode, and one left and one right occipital electrode (P. ETEVENON, loc.cit.). The test is carried out when the animals are about 15 months old. In the meantime, the animals are kept in individual cages. They are given water and food ad libitum and are subjected to a regular daily cycle comprising a period of darkness between 6 o'clock in the evening and 6 o'clock in the morning. At the same time, the animals are progressively acclimatized to the cages of the sound-proof cabin which they will subsequently occupy for recording of the electroencephalograms, as well as to the experimental conditions, by intraperitoneal administration of placebo. The products are administered immediately before the EEG is recorded. The rats are divided into groups of 8 animals and 16 samples of the EEG spectra are recorded over 5 seconds (two EEG spectra per animal). The spectra obtained are then analyzed by computer (rapid Fourier transform), which enables the average of the 16 measurements performed to be determined for each group and the overall intensity of the EEG spectrum and the distribution of this intensity (in %) in the various frequency bands to be deduced for each animal. This operation (recording of the spectra) is repeated 9 times (total

Compound | inhibition
CCCc1nc(NCCO)nc(N2CCOCC2)n1 [Compound 1, 2-[(4-morpholino-6-propyl-1,3,5-triazin-2-yl)amino]-ethanol] | 52%
CCCc1nc(NC(CC)CO)nc(N2CCOCC2)n1 (centres unmarked) [Compound 7] | 50%
CCCc1nc(N(C)CCO)nc(N2CCOCC2)n1 [Compound 9] | 53.3%
CCCc1nc(NN(C)C)nc(N2CCOCC2)n1 [Compound 20, 2-(2,2-dimethylhydrazino)-4-morpholino-6-propyl-1,3,5-triazine] | 66.7%
CCCc1nc(NC(C)=O)nc(N2CCOCC2)n1 [Compound 21a, N-(4-Morpholino-6-propyl-1,3,5-triazin-2-yl)-acetamide] | 100%
CCCc1nc(NC(=O)c2ccccc2)nc(N2CCOCC2)n1.Cl [Compound 22, N-(4-morpholino-6-propyl-1,3,5-triazin-2-yl)-benzamide hydrochloride] | 66.7%
CCCc1nc(N2CCOCC2)nc(N(C)C(C)=O)n1 [Compound 25a] | 46.7%
CCCc1nc(N2CCOCC2)nc(N(C)C(=O)C(C)C)n1 [Compound 26] | 55.6%
CCCc1nc(N2CCOCC2)nc(N(C)C(=O)c2ccccc2)n1.Cl [Compound 27, N-methyl-N-(4-morpholino-6-propyl-1,3,5-triazin-2-yl)-benzamide hydrochloride] | 93.8%
CCCc1nc(NCCOC(C)=O)nc(N2CCOCC2)n1 [Compound 37, 2-[[2-(acetoxy)ethyl]amino]-4-morpholino-6-propyl-1,3,5-triazine] | 53.3%
CCCc1nc(N2CCOCC2)nc(N(CCOC(C)=O)C(C)=O)n1 [Compound 43, N-[2-(Acetoxy)ethyl]-N-(4-morpholino-6-propyl-1,3,5-triazin-2-yl)-acetamide] | 77.8%
